Measurements published in publication PMC9505425, “Targeting of the Mitochondrial TET1 Protein by Pyrrolo[3,2-b]pyrrole Chelators” (International Journal of Molecular Sciences, 2022).
pIC50: −log10 of the molar value. Values joined by “and” are separate entries in the source; they are usually repeats but may differ in a detail not shown here. Equal values may be shown once.

What was measured:
[1] = MTT cytotoxicity assay, HF-P4; format: cell-based, human; details: human, HF-P4 normal human dermal fibroblasts, repeats, read-out: Cell viability %
Description: (§1) The effects of the tested compounds 1–6 on HF-P4, U-118 MG, H1299, BT-20, and Caov-3 cell lines were evaluated by the MTT assay during 48 h treatment (Table 2 and Tables S2–S31). In all tested compounds, we recognized a difference in cytotoxicity between healthy cells (HF-P4) and cancer cell lines (BT-20, Caov-3, and H-1299). […] In the case of ovarian cancer, the authors discovered oncogenic and poor prognosis roles of TET1 in epithelial ovarian carcinoma (EOC). TET1 is believed to demethylate the epigenome and activate numerous oncogenic pathways in EOC. The aforementioned study presents a new mechanism where TET1 contributes to tumor development through collaboration with CK2α [21]. The overexpression of the TET1 protein was also found in triple negative breast cancer and was associated with an activation of PI3K/mTOR pathway and decreased overall survival.
(§2) A human dermal fibroblast cell line was used for intracellular localization and cytotoxicity assay (MTT). Human fibroblast cells HF-P4 (human fibroblasts—patient 4) are normal dermal fibroblasts, which were obtained from the residual skin of a healthy patient who underwent plastic surgery (with informed consent of the patient). HF-P4 cell lines were obtained from the Department of Plastic Surgery, Third Faculty of Medicine, Charles University and University Hospital Královské Vinohrady, Prague, Czech Republic, as described by Szabo et al., 2011, and Dvořánková et al., 2019 [88, 89], and have been processed in accordance with the relevant local ethics committee and the Declaration of Helsinki protection of patients’ rights and benefits with written and signed informed consent of each patient. Cells were cultivated under standard conditions in Dulbecco’s modified Eagle’s medium (ATCC, Manassas, VA, USA), supplemented with 10% FBS and streptomycin (100 μg/mL) at 37 °C at a 5% CO2 atmosphere.
(§3) For the cytotoxicity assay, we used the following cell lines: human glioblastoma cell line U118-MG, human mammary gland/breast cell line BT-20, human ovary adenocarcinoma cell line Caov-3, and non-small-cell lung carcinoma H-1299. As previously mentioned, these cell lines contain a high level of the TET1 protein, which corresponds to a lower overall survival. In addition to these cell cultures, we used the human dermal fibroblast cell line HF-P4 as a healthy control. Determination of cytotoxicity was performed using the MTT [3-(4,5-dimethylthiazol-2-yl)-2,5-diphenyltetrazolium bromide] colorimetric assay. Viable cells from each cell line were cultured in 96-well plates (VWR, Stříbrná Skalice, Czech Republic) at a density of 1.0 × 10^5 cells per well and allowed to grow for 24 h in 200 μL of recommended medium. After a 1-day incubation, the medium was replaced with solutions of compounds 1–6 at concentration ranges of 0.1–20 μM. Each concentration was measured four times within one test, and the entire test was repeated three times. Tested compounds 1–6 were dissolved in DMSO and then diluted with corresponding medium to a final volume of 200 μL (maximum 1% DMSO). After 48 h exposure, cells were treated with 175 μL of MTT solution (P-LAB, Prague, Czech Republic) for 2 h. In the next step, MTT solution was removed, and 125 μL of DMSO (Penta, Prague, Czech Republic) was added to solubilize dark crystals of formazan formed in intact cells, and absorbance was measured at 570 nm by the enzyme-linked immunoabsorbent assay reader Infinite® 200 PRO (Tecan, Männedorf, Switzerland). The final DMSO concentration was smaller than 1% (v/v). The absorbance of untreated cells was considered 100%, and IC50 values were calculated by the GraphPad Prism 8 software. As a parameter for cytotoxicity, we used a concentration that inhibits 50% of cell growth (IC50).

HF-P4 cells = test: MTT cytotoxicity assay, HF-P4; format: cell-based, human; details: 48 h; for Cell viability %: repeats
Description: as §1, §2, §3

Caov-3 cells = test: MTT cytotoxicity assay, Caov-3; format: cell-based, human
Description: as §1
The human ovary adenocarcinoma cell line (Caov-3), purchased from ATCC (Caov-3 (ATCC® HTB-75™), Manassas, VA, USA), was used for the cytotoxicity assay (MTT). Caov-3 cells were cultivated under standard conditions in Dulbecco’s modified Eagle’s medium (ATCC, Manassas, VA, USA) supplemented with 10% FBS and streptomycin (100 μg/mL) at 37 °C at a 5% CO2 atmosphere.
as §3

BT-20 cells = test: MTT cytotoxicity assay, BT-20; format: cell-based, human
Description: as §1
The human mammary gland/breast cell line (BT-20), purchased from ATCC (BT-20 (ATCC® HTB-19™), Manassas, VA, USA), was used for the cytotoxicity assay (MTT), and BT-20 cells were cultivated under standard conditions in Eagle’s minimum essential medium (ATCC, Manassas, VA, USA) supplemented with 10% FBS and streptomycin (100 μg/mL) at 37 °C at a 5% CO2 atmosphere.
as §3

Cc1ccc(-n2c(-c3ccc(C(=O)NN)cc3)cc3c2cc(-c2ccc(C(=O)NN)cc2)n3-c2ccc(C)cc2)cc1 [Compound 1]
viability at 48 h, 0.1 µM ([1]; HF-P4, 100 nM): 101%
viability at 48 h, 0.5 µM ([1]; HF-P4, 500 nM): 106%
viability at 48 h, 0.75 µM ([1]; HF-P4, 750 nM): 94%
viability at 48 h, 1 µM ([1]; HF-P4, 1 uM): 105%
viability at 48 h, 2.5 µM ([1]; HF-P4, 2.5 uM): 94.3%
viability at 48 h, 5 µM ([1]; HF-P4, 5 uM): 80.7%
viability at 48 h, 7.5 µM ([1]; HF-P4, 7.5 uM): 77.3%
viability at 48 h, 10 µM ([1]; HF-P4, 10 uM): 70.5%
viability at 48 h, 15 µM ([1]; HF-P4, 15 uM): 67.1%
viability at 48 h, 20 µM ([1]; HF-P4, 20 uM): 64%
Cell viability % (HF-P4 cells; HF-P4, 100 nM, 0.1 µM): 110.5137% and 108.5444%
Cell viability % (HF-P4 cells; HF-P4, 500 nM, 0.5 µM): 109.6499% and 91.3%
Cell viability % (HF-P4 cells; HF-P4, 750 nM, 0.75 µM): 108.0378% and 98.14%
Cell viability % (HF-P4 cells; HF-P4, 1 uM, 1 µM): 114.0028% and 114.925%
Cell viability % (HF-P4 cells; HF-P4, 2.5 uM, 2.5 µM): 106.4486% and 88.2524%
Cell viability % (HF-P4 cells; HF-P4, 5 uM, 5 µM): 90.58% and 81.47%
Cell viability % (HF-P4 cells; HF-P4, 7.5 uM, 7.5 µM): 87.03% and 78.05%
Cell viability % (HF-P4 cells; HF-P4, 10 uM, 10 µM): 75.94% and 65.94%
Cell viability % (HF-P4 cells; HF-P4, 15 uM, 15 µM): 59.86% and 63.15%
Cell viability % (HF-P4 cells; HF-P4, 20 uM, 20 µM): 64.65% and 61.04%
pIC50 (HF-P4 cells; Homo sapiens, MTT): < 4.70
Cell viability % (Caov-3 cells; Caov-3, 100 nM, 48 h, repeats, 0.1 µM): 80.61% and 94.8%
Cell viability % (Caov-3 cells; Caov-3, 500 nM, 48 h, repeats, 0.5 µM): 91.36% and 100.9421% and 76.35%
Cell viability % (Caov-3 cells; Caov-3, 750 nM, 48 h, repeats, 0.75 µM): 95.41% and 77.67%
Cell viability % (Caov-3 cells; Caov-3, 1 uM, 48 h, repeats, 1 µM): 71.07% and 89.66%
Cell viability % (Caov-3 cells; Caov-3, 2.5 uM, 48 h, repeats, 2.5 µM): 71.79% and 55.75%
Cell viability % (Caov-3 cells; Caov-3, 5 uM, 48 h, repeats, 5 µM): 48.77% and 58.08%
Cell viability % (Caov-3 cells; Caov-3, 7.5 uM, 48 h, repeats, 7.5 µM): 51.68% and 65.52%
Cell viability % (Caov-3 cells; Caov-3, 10 uM, 48 h, repeats, 10 µM): 53.56% and 43.67%
Cell viability % (Caov-3 cells; Caov-3, 15 uM, 48 h, repeats, 15 µM): 35.1% and 41.9%
Cell viability % (Caov-3 cells; Caov-3, 20 uM, 48 h, repeats, 20 µM): 35.73% and 39.69%
viability at 0.1 µM (Caov-3 cells; Homo sapiens, Caov-3, 48 h, Caov-3, 100 nM, repeats, read-out: Cell viability %): 97.9%
viability at 0.75 µM (Caov-3 cells; Homo sapiens, Caov-3, 48 h, Caov-3, 750 nM, repeats, read-out: Cell viability %): 78.5%
viability at 1 µM (Caov-3 cells; Homo sapiens, Caov-3, 48 h, Caov-3, 1 uM, repeats, read-out: Cell viability %): 81.2%
viability at 2.5 µM (Caov-3 cells; Homo sapiens, Caov-3, 48 h, Caov-3, 2.5 uM, repeats, read-out: Cell viability %): 55.9%
viability at 5 µM (Caov-3 cells; Homo sapiens, Caov-3, 48 h, Caov-3, 5 uM, repeats, read-out: Cell viability %): 50.9%
viability at 7.5 µM (Caov-3 cells; Homo sapiens, Caov-3, 48 h, Caov-3, 7.5 uM, repeats, read-out: Cell viability %): 56.4%
viability at 10 µM (Caov-3 cells; Homo sapiens, Caov-3, 48 h, Caov-3, 10 uM, repeats, read-out: Cell viability %): 45.1%
viability at 15 µM (Caov-3 cells; Homo sapiens, Caov-3, 48 h, Caov-3, 15 uM, repeats, read-out: Cell viability %): 45.9%
viability at 20 µM (Caov-3 cells; Homo sapiens, Caov-3, 48 h, Caov-3, 20 uM, repeats, read-out: Cell viability %): 28.5%
pIC50 (Caov-3 cells; Homo sapiens, Caov-3, MTT, 48 h): 5.19
Cell viability % (BT-20 cells; BT-20, 100 nM, 48 h, repeats, 0.1 µM): 100.0252% and 99.53%
Cell viability % (BT-20 cells; BT-20, 500 nM, 48 h, repeats, 0.5 µM): 106.1555% and 91.85%
Cell viability % (BT-20 cells; BT-20, 750 nM, 48 h, repeats, 0.75 µM): 98.6% and 95.52%
Cell viability % (BT-20 cells; BT-20, 1 uM, 48 h, repeats, 1 µM): 98.92% and 100.049%
Cell viability % (BT-20 cells; BT-20, 2.5 uM, 48 h, repeats, 2.5 µM): 55.65% and 54.6523%
Cell viability % (BT-20 cells; BT-20, 5 uM, 48 h, repeats, 5 µM): 56.31% and 56.39%
Cell viability % (BT-20 cells; BT-20, 7.5 uM, 48 h, repeats, 7.5 µM): 50.1262% and 42.238%
Cell viability % (BT-20 cells; BT-20, 10 uM, 48 h, repeats, 10 µM): 44.0939% and 37.78%
Cell viability % (BT-20 cells; BT-20, 15 uM, 48 h, repeats, 15 µM): 32.99% and 30.02%
Cell viability % (BT-20 cells; BT-20, 20 uM, 48 h, repeats, 20 µM): 18.85% and 15.23%
viability at 0.1 µM (BT-20 cells; Homo sapiens, BT-20, 48 h, BT-20, 100 nM, repeats, read-out: Cell viability %): 102%
viability at 0.5 µM (BT-20 cells; Homo sapiens, BT-20, 48 h, BT-20, 500 nM, repeats, read-out: Cell viability %): 87.8%
viability at 0.75 µM (BT-20 cells; Homo sapiens, BT-20, 48 h, BT-20, 750 nM, repeats, read-out: Cell viability %): 91.2%
viability at 1 µM (BT-20 cells; Homo sapiens, BT-20, 48 h, BT-20, 1 uM, repeats, read-out: Cell viability %): 103%
viability at 2.5 µM (BT-20 cells; Homo sapiens, BT-20, 48 h, BT-20, 2.5 uM, repeats, read-out: Cell viability %): 69.2%
viability at 5 µM (BT-20 cells; Homo sapiens, BT-20, 48 h, BT-20, 5 uM, repeats, read-out: Cell viability %): 56.8%
viability at 7.5 µM (BT-20 cells; Homo sapiens, BT-20, 48 h, BT-20, 7.5 uM, repeats, read-out: Cell viability %): 41.2%
viability at 10 µM (BT-20 cells; Homo sapiens, BT-20, 48 h, BT-20, 10 uM, repeats, read-out: Cell viability %): 41.5%
viability at 15 µM (BT-20 cells; Homo sapiens, BT-20, 48 h, BT-20, 15 uM, repeats, read-out: Cell viability %): 33.5%
viability at 20 µM (BT-20 cells; Homo sapiens, BT-20, 48 h, BT-20, 20 uM, repeats, read-out: Cell viability %): 19.8%
pIC50 (BT-20 cells; Homo sapiens, BT-20, MTT, 48 h): 5.23
melting point: 312 to 313 °C
